Literature values in US20060099251A1, “Formulations of finasteride” (priority 2002, published 2006).

- solubility in water: practically insoluble
SMILES: CC(C)(C)NC(=O)[C@H]1CCC2[C@@H]3CCC4NC(=O)C=C[C@]4(C)C3CC[C@@]21C (stereo partly drawn) [Finasteride, 17β-(N-tert-butylcarbamoyl)-4-aza-5α-androst-1-en-3-one]
